From patent publication US20120083522A1, “MODULATION OF INFLAMMATORY RESPONSES BY FACTOR XI” (Isis Pharmaceuitcals, inc., priority 2009, published 2012)
In the oligonucleotide strings, read from the 5' end, every base follows the letter of its sugar. An asterisk marks phosphorothioate; unmarked linkages are phosphodiester. Other units and linkages are bracketed, terminal groups are in braces. A string of capitals states the bases alone. e = 2'-O-(2-methoxyethyl) (MOE); [5mC] = 5-methylcytosine; d = 2'-deoxy (DNA)

What was measured:
[1] = tested on: human Factor XI mRNA; experiment: Dose-dependent inhibition in HepG2 cells, electroporation (Example 4); type: cell-based; details: 16 hours
In short: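 HepG2 cells electroporated with 0.7, 2.2, 6.7 or 20 μM antisense gapmer and harvested after ~16 h. Factor XI mRNA quantified by qRT-PCR (primer probe set RTS 2966), normalised to total RNA (RIBOGREEN). Reported as percent inhibition versus untreated control cells.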

[2] = tested on: Factor XI mRNA; experiment: Cynomolgus monkeys, 25 mg/kg: liver Factor XI RNA analysis (Example 30); type: in vivo; details: for % inhibition of Factor XI mRNA in liver relative to the PBS control: 25 mg/kg s.c., day 55
Procedure: Groups, each consisting of two male and two female monkeys, were injected subcutaneously with 25 mg/kg of ISIS 416850, ISIS 449709, ISIS 445522, ISIS 449710, ISIS 449707, ISIS 449711, ISIS 449708, 416858 and ISIS 445531. Antisense oligonucleotide was administered to the monkeys at 25 mg/kg three times per week for week 1 and 25 mg/kg twice per week for weeks 2 to 8. A control group, consisting of two male and two female monkeys was injected subcutaneously with PBS according to the same dosing regimen. Body weights were taken 14 days and 7 days before the start of treatment and were then measured weekly throughout the treatment period. Blood samples were collected 14 days and 5 days before the start of treatment and subsequently several times during the dosing regimen for measurement of various hematologic factors. On day 55, the monkeys were euthanized by exsanguination while under deep anesthesia, and organs harvested for further analysis.
On day 55, RNA was extracted from liver tissue for real-time PCR analysis of Factor XI using primer probe set LTS00301. Results are presented as percent inhibition of Factor XI, relative to PBS control.

[3] = tested on: human Factor XI mRNA; experiment: Dose-dependent inhibition and IC50 in HepG2 cells, microwalk gapmers, electroporation (Example 16); type: cell-based
Procedure: These gapmers were tested at various doses in HepG2 cells. Cells were plated at a density of 20,000 cells per well and transfected using electroporation with 375 nM, 750 nM, 1,500 nM, 3,000 nM, 6,000 nM and 12,000 nM concentrations of antisense oligonucleotide, as specified in Table 54. After a treatment period of approximately 16 hours, RNA was isolated from the cells and Factor XI mRNA levels were measured by quantitative real-time PCR. Human Factor XI primer probe set RTS 2966 was used to measure mRNA levels. Factor XI mRNA levels were adjusted according to total RNA content, as measured by RIBOGREEN. Results are presented as percent inhibition of Factor XI, relative to untreated control cells.
ISIS 416850, ISIS 416858, ISIS 445522, and ISIS 445531 (see Table 52 above) were re-tested in vitro along with the microwalk gapmers under the same conditions described above.
The chimeric antisense oligonucleotides in Table 53 were designed as 3-8-3 MOE, 4-8-4 MOE, 2-10-2 MOE, 3-10-3 MOE, or 4-10-4 MOE gapmers. The 3-8-3 gapmer is 14 nucleotides in length, wherein the central gap segment is comprised of eight 2′-deoxynucleotides and is flanked on both sides (in the 5′ and 3′ directions) by wings comprising three nucleotides each. The 4-8-4 gapmer is 16 nucleotides in length, wherein the central gap segment is comprised of eight 2′-deoxynucleotides and is flanked on both sides (in the 5′ and 3′ directions) by wings comprising four nucleotides each. The 2-10-2 gapmer is 14 nucleotides in length, wherein the central gap segment is comprised of ten 2′-deoxynucleotides and is flanked on both sides (in the 5′ and 3′ directions) by wings comprising two nucleotides each. The 3-10-3 gapmer is 16 nucleotides in length, wherein the central gap segment is comprised of ten 2′-deoxynucleotides and is flanked on both sides (in the 5′ and 3′ directions) by wings comprising three nucleotides each. The 4-10-4 gapmer is 18 nucleotides in length, wherein the central gap segment is comprised of ten 2′-deoxynucleotides and is flanked on both sides (in the 5′ and 3′ directions) by wings comprising four nucleotides each. For each of the motifs (3-8-3, 4-8-4, 2-10-2, 3-10-3, and 4-10-4), each nucleotide in the 5′ wing segment and each nucleotide in the 3′ wing segment has a 2′-MOE modification. The internucleoside linkages throughout each gapmer are phosphorothioate (P═S) linkages. All cytidine residues throughout each gapmer are 5-methylcytidines. “Human Target start site” indicates the 5′-most nucleotide to which the gapmer is targeted in the human sequence. “Human Target stop site” indicates the 3′-most nucleotide to which the gapmer is targeted in the human sequence. Each gapmer listed in Table 53 is targeted to SEQ ID NO: 1 (GENBANK Accession No. NM_000128.3). Each gapmer is Table 53 is also fully cross-reactive with the rhesus monkey Factor XI gene sequence, designated herein as SEQ ID NO: 274 (exons 1-15 GENBANK Accession No. NW—001118167.1). ‘Rhesus monkey start site’ indicates the 5′-most nucleotide to which the gapmer is targeted in the rhesus monkey sequence. ‘Rhesus monkey stop site’ indicates the 3′-most nucleotide to which the gapmer is targeted to the rhesus monkey sequence.
The first two listed gapmers in Table 54 are the original gapmers (ISIS 416850 and ISIS 416858) from which the remaining gapmers were designed via microwalk and are designated by an asterisk.

| Substance | percent inhibition of Factor XI mRNA, relative to untreated control cells ([1]; 0.7 μM) | percent inhibition of Factor XI mRNA, relative to untreated control cells ([1]; 2.2 μM) | percent inhibition of Factor XI mRNA, relative to untreated control cells ([1]; 6.7 μM) | percent inhibition of Factor XI mRNA, relative to untreated control cells ([1]; 20 μM) | % inhibition of Factor XI mRNA in liver relative to the PBS control [2] | percent inhibition of Factor XI mRNA ([3]; electroporation, 375 nM) | percent inhibition of Factor XI mRNA ([3]; electroporation, 750 nM) | percent inhibition of Factor XI mRNA ([3]; electroporation, 1,500 nM) | percent inhibition of Factor XI mRNA ([3]; electroporation, 3,000 nM) | percent inhibition of Factor XI mRNA ([3]; electroporation, 6,000 nM) | percent inhibition of Factor XI mRNA ([3]; electroporation, 12,000 nM) | Factor XI mRNA in liver (in words) ([2]; cynomolgus monkeys, day 55, in comparison to the PBS control) |
| --- | --- | --- | --- | --- | --- | --- | --- | --- | --- | --- | --- | --- |
| 416825 (antisense GCCCTTCATGTCTAGGTCCA; 5-10-5 gapmer, wing sugar chemistry not given here, further chemistry not given here) [compound 416825] | 27% | 74% | 92% | 98% | – | – | – | – | – | – | – | – |
| 416838 (antisense GCAACCGGGATGATGAGTGC; 5-10-5 gapmer, wing sugar chemistry not given here, further chemistry not given here) [compound 416838] | 5% | 30% | 55% | 83% | – | – | – | – | – | – | – | – |
| 416850 (antisense TGCACAGTTTCTGGCAGGCC; 5-10-5 gapmer, wing sugar chemistry not given here, further chemistry not given here) [compound 416850] | 14% | 25% | 81% | 91% | 68% | 40% | 59% | 69% | 87% | 90% | 95% | – |
| 416858 (antisense ACGGCATTGGTGCACAGTTT; 5-10-5 gapmer, wing sugar chemistry not given here, further chemistry not given here) [compound 416858] | 5% | 20% | 56% | 86% | 89% | 31% | 35% | 78% | 85% | 90% | 93% | – |
| 416864 (antisense GGCAGCGGACGGCATTGGTG; 5-10-5 gapmer, wing sugar chemistry not given here, further chemistry not given here) [compound 416864] | 32% | 65% | 78% | 90% | – | – | – | – | – | – | – | – |
| 416925 (antisense GGTGCACAGTTTCTGGCAGG; 3-14-3 chimeric gapmer, wing sugar chemistry not given here, further chemistry not given here) [compound 416925] | 0% | 40% | 76% | 80% | – | – | – | – | – | – | – | – |
| 416999 (antisense GCACAGTTTCTGGCAGGCCT; 2-13-5 gapmer, wing sugar chemistry not given here, further chemistry not given here) [compound 416999] | 20% | 42% | 77% | 88% | – | – | – | – | – | – | – | – |
| 417002 (antisense GGTGCACAGTTTCTGGCAGG; 2-13-5 gapmer, wing sugar chemistry not given here, further chemistry not given here) [compound 417002] | 32% | 38% | 82% | 91% | – | – | – | – | – | – | – | – |
| 417003 (antisense TGGTGCACAGTTTCTGGCAG; 2-13-5 gapmer, wing sugar chemistry not given here, further chemistry not given here) [compound 417003] | 0% | 34% | 75% | 89% | – | – | – | – | – | – | – | – |
| 445522 (antisense eG*e[5mC]*eA*e[5mC]*eA*dG*dT*dT*dT*d[5mC]*dT*dG*dG*e[5mC]*eA*eG*eG*e[5mC]) [compound 445522] | – | – | – | – | 89% | 59% | 71% | 83% | 82% | 81% | 92% | – |
| 445531 (antisense eG*eG*e[5mC]*eA*eT*dT*dG*dG*dT*dG*d[5mC]*dA*d[5mC]*eA*eG*eT*eT*eT) [compound 445531] | – | – | – | – | 66% | 44% | 64% | 78% | 86% | 91% | 93% | – |
| ISIS 416850: gapmer of Table 8 (antisense eT*eG*e[5mC]*eA*e[5mC]*dA*dG*dT*dT*dT*d[5mC]*dT*dG*dG*d[5mC]*eA*eG*eG*e[5mC]*e[5mC]) | – | – | – | – | – | – | – | – | – | – | – | significant reduction of Factor XI mRNA |
